One test deals with T1, ERK5 (Homo sapiens, UniProt Q13164).
T1 construct: screened for activity against several kinases in Jurkat cells; endogenous in cells; host or cells: Jurkat cell lysate
The test is described as follows: Probe-based (AX9989 acyl phosphate ATP probe) kinase profiling in Jurkat lysate: ERK5. To be noted: for pIC50: calculated from percent inhibition and screening concentration, Jurkat lysate, AX9989 probe; for inhibition at 1 µM: screening concentration 1 μM, read-out: ERK5 Inhibition % at indicated screening concentration. Format: binding. Summed up: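 ERK5 IC50 values came from percent inhibition at the screening concentration, measured as loss of LC/MS signal of probe-labelled active-site peptides. Compound was added for 15 min at room temperature to Jurkat lysate (5 mg/ml, 20 mM MnCl2) before labelling with AX9989 ATP acyl phosphate probe at 5 μM.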

The next test deals with T2, AurA (Homo sapiens, UniProt O14965).
T2 construct: screened for activity against several kinases in Jurkat cells; endogenous in cells; host or cells: Jurkat cell lysate
T2 sequence (O14965 1-403): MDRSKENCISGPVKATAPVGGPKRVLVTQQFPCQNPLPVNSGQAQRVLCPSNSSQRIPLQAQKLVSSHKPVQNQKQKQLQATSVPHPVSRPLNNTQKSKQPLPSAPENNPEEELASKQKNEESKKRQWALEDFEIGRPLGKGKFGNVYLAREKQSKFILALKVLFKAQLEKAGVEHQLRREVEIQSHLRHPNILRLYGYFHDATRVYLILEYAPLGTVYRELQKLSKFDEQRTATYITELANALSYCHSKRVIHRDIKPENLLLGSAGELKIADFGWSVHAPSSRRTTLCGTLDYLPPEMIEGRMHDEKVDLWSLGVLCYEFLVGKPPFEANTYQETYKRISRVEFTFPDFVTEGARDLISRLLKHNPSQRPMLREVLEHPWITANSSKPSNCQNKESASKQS
The test is described as follows: Probe-based (AX9989) kinase profiling in Jurkat lysate: AurA. The conditions noted are these: screening concentration 1 μM; read-out: AurA Inhibition % at indicated screening concentration. It counts as binding. Summed up:
(§1)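 Percent inhibition was derived from reduced LC/MS fragment intensities of probe-labeled peptides relative to compound-free controls. Before labeling with 5 μM AX9989, Mn2+-supplemented (20 mM) Jurkat lysate was exposed to compound for 15 min at room temperature.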

Another test deals with AurB or AurC. The test is described as follows: Probe-based (AX9989) kinase profiling in Jurkat lysate: AurB or AurC. Format: binding. To be noted: screening concentration 1 μM. Summed up: as §1
For the next test, the target named is T3, JAK1 (Homo sapiens, UniProt P23458).
T3 construct: screened for activity against several kinases in Jurkat cells; endogenous in cells; host or cells: Jurkat cell lysate
T3 sequence (P23458 whole entry): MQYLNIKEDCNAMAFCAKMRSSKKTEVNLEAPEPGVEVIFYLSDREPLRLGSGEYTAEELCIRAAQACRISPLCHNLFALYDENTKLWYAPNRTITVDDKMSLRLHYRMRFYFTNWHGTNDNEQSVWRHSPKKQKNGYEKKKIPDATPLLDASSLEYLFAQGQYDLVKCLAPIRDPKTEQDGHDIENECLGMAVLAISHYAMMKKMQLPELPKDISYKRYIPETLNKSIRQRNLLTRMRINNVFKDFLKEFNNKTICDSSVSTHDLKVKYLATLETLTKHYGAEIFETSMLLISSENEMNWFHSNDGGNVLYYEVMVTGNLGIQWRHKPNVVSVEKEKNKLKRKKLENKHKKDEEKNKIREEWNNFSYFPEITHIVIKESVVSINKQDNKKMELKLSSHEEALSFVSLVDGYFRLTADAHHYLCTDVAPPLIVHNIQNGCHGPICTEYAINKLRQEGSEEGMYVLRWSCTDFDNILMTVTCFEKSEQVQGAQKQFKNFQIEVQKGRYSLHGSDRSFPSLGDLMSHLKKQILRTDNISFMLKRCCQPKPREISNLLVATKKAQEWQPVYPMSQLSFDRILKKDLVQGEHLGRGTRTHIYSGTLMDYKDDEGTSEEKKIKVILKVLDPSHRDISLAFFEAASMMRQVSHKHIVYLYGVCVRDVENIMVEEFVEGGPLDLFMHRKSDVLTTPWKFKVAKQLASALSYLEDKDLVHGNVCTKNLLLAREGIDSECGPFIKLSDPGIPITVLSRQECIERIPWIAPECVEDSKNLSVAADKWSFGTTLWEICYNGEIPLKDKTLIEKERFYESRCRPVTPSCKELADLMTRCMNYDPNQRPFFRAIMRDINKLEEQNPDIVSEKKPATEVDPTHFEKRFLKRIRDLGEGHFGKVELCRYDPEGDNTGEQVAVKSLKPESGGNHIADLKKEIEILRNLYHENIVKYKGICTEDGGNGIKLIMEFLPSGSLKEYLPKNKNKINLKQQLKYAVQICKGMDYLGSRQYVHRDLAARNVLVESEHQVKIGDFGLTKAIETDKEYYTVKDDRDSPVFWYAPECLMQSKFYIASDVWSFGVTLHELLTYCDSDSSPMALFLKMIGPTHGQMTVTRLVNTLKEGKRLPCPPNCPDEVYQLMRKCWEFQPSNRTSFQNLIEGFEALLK
The test is described as follows: Probe-based (AX9989) kinase profiling in Jurkat lysate: JAK1. Format: binding. The conditions noted are these: screening concentration 1 μM; read-out: JAK1 Inhibition % at indicated screening concentration. An outline of the steps:
as §1

The next test deals with AMPKa1 or AMPKa2. The test is described as follows: Probe-based (AX9989) kinase profiling in Jurkat lysate: AMPKa1 or AMPKa2. Format: binding. The conditions noted are these: screening concentration 1 μM. Summed up:
as §1

A further test deals with T4, TAO2 (Homo sapiens, UniProt Q9UL54).
T4 construct: screened for activity against several kinases in Jurkat cells; endogenous in cells; host or cells: Jurkat cell lysate
T4 sequence (Q9UL54 1-1235): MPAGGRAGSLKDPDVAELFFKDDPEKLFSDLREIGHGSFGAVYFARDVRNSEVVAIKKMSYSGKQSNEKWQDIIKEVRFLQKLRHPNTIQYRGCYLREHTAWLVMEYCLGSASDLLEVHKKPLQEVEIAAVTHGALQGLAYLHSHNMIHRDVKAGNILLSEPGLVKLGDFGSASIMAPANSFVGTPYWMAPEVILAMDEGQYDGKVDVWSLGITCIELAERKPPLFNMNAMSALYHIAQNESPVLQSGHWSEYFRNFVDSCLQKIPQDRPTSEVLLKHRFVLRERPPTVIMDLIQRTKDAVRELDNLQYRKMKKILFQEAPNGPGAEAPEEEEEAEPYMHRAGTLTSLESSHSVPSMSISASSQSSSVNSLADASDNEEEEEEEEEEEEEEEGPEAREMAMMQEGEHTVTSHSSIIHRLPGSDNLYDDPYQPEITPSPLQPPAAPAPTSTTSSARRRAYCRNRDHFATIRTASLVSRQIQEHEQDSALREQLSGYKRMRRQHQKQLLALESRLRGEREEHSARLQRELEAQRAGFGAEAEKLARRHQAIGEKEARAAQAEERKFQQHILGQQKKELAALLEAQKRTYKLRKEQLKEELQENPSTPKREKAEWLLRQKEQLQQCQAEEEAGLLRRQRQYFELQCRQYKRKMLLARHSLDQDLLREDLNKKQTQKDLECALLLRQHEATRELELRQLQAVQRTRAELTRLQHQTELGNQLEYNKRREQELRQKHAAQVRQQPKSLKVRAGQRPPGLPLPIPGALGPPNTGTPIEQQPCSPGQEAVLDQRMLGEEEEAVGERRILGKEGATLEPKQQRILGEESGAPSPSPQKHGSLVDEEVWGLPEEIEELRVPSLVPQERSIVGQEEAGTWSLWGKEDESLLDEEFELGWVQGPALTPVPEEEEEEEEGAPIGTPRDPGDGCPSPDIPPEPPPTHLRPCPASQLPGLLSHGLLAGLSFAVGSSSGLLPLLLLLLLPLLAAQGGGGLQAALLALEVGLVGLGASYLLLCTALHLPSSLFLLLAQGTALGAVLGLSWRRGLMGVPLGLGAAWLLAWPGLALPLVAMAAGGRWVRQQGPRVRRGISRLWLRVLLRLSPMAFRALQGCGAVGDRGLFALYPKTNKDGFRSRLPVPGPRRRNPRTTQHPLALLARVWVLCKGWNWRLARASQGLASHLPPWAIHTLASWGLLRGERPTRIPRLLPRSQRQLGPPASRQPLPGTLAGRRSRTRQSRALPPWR
The test is described as follows: Probe-based (AX9989) kinase profiling in Jurkat lysate: TAO2. Format: binding. The conditions noted are these: screening concentration 1 μM; read-out: TAO2 Inhibition % at indicated screening concentration. Summed up:
as §1

Another test deals with T5, ACK (Homo sapiens, UniProt Q07912).
T5 construct: screened for activity against several kinases in Jurkat cells; endogenous in cells; host or cells: Jurkat cell lysate
T5 sequence (Q07912 whole entry): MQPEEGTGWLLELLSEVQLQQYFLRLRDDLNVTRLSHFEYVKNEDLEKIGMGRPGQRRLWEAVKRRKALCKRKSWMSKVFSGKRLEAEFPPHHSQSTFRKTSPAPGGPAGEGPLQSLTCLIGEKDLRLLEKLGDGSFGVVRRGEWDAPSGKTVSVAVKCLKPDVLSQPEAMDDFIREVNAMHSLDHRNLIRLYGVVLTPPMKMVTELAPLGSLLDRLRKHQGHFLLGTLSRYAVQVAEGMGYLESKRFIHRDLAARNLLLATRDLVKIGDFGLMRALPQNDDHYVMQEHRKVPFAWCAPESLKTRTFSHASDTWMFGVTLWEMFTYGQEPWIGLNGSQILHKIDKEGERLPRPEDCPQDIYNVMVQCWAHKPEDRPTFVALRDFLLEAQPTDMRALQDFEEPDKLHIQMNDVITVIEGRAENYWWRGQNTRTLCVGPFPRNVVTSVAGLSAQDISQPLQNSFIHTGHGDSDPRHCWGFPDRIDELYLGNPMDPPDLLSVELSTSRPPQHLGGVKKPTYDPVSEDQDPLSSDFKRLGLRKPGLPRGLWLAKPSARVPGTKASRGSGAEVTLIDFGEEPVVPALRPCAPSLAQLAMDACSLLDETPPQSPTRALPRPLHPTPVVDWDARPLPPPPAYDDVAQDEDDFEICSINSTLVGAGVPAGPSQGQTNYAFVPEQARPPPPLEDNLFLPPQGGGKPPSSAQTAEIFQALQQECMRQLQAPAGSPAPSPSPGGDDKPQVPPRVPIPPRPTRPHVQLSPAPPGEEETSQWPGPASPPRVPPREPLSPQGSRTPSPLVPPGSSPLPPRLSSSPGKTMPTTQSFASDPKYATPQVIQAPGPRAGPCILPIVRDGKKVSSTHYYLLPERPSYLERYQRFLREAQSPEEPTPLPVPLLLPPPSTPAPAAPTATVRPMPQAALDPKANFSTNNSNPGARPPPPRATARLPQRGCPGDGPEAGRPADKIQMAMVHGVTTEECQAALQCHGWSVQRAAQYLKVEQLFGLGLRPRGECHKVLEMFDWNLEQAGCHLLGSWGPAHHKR
The test is described as follows: Probe-based (AX9989) kinase profiling in Jurkat lysate: ACK. It counts as binding. To be noted: screening concentration 1 μM; read-out: ACK Inhibition % at indicated screening concentration. Summed up:
as §1

The test system of the next test is ABL or ARG. The test is described as follows: Probe-based (AX9989) kinase profiling in Jurkat lysate: ABL or ARG. It counts as binding. To be noted: screening concentration 1 μM. Summed up: as §1
The next test has as its system human PBMCs. The test is described as follows: Human PBMC TNF-α response to endotoxin (ELISA). The conditions noted are these: 0.1 μg/ml LPS 16 h, read-out: EC50 for the inhibition of the human PBMC TNF-α response to endotoxin, ave. ± S.D. It counts as cell-based. Summed up:
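PBMCs at 2e6 cells/ml in RPMI 1640 with 10% charcoal-dextran-treated FBS were pre-treated 1 h at 37 °C with compound (4-point 1:5 dilution from 10 μM). Stimulation with 0.1 μg/ml E. coli 0111:B4 LPS for 16 h; TNF-α measured by ELISA (A450) in 25-fold diluted supernatant.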
For orientation: ELISA stands for enzyme-linked immunosorbent assay.

pEC50, pIC50: −log10 of the molar value.

T1 sequence (Q13164 whole entry): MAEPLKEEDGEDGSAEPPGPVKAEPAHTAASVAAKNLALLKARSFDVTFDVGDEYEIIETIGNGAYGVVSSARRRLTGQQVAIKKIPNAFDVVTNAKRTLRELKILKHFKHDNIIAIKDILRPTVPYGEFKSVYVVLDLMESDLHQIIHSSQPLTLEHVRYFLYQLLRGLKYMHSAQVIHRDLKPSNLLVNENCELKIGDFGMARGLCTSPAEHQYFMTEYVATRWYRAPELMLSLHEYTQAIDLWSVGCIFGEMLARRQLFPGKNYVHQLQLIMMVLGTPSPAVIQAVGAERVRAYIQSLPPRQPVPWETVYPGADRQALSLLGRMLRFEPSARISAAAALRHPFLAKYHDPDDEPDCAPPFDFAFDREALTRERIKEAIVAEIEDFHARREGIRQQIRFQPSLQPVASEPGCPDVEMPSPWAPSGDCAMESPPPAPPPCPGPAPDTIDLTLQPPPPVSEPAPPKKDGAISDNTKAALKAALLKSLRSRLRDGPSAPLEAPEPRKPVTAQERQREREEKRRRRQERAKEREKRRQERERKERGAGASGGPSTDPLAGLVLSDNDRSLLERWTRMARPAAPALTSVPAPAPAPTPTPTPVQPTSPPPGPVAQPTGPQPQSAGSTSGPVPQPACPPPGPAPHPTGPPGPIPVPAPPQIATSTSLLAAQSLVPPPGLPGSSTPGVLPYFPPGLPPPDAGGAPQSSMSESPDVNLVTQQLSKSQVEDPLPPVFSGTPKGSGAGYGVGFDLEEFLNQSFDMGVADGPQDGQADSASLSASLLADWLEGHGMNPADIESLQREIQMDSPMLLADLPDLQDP

The pIC50 is the negative decadic logarithm of the IC50, by convention in mol/L. One may read the pEC50 as −log10 of the EC50, conventionally taken in molar units. With `CC(=O)N1CCN(C(=O)c2ccc(Nc3cc4c(cn3)N(C)C(=O)c3ccccc3N4C)c(F)c2)CC1` [Compound T71], the pIC50 on ERK5 is no less than 7.30. Moreover, the inhibition at 1 µM was greater than 90% on ERK5; no more than 35% on AurA; no more than 35% on JAK1; no more than 35% at TAO2; no more than 35% on ACK. Besides, the “AurB or AurC Inhibition % at indicated screening concentration” value (shortened to “AurB or AurC Inhibition %”) in the test with AurB or AurC was “E (E is ≦35%)”. For the same compound, in the test with AMPKa1 or AMPKa2, the “AMPKa1 or AMPKa2 Inhibition % at indicated screening concentration” value (shortened to “AMPKa1 or AMPKa2 Inhibition %”) is reported as “E (E is ≦35%)”. Moreover, in the test on ABL or ARG, the “ABL or ARG Inhibition % at indicated screening concentration” value (shortened to “ABL or ARG Inhibition %”) was “E (E is ≦35%)”. The pEC50 in the test on human PBMCs is 5.38.
Take `CN1C(=O)c2ccccc2N(C)c2cc(Nc3ccc(C(=O)N4CCN(S(C)(=O)=O)CC4)cc3F)ncc21` [Compound T72]: the negative-log IC50 (pIC50) at ERK5 was no less than 7.30. Besides, the inhibition at 1 µM is greater than 90% at ERK5; no more than 35% at AurA; no more than 35% at JAK1; no more than 35% at TAO2; no more than 35% at ACK. Further, the “AurB or AurC Inhibition %” value in the test on AurB or AurC is “D (D is >35% to ≦50%)”. Moreover, the “AMPKa1 or AMPKa2 Inhibition %” value in the test with AMPKa1 or AMPKa2 was “E (E is ≦35%)”. In addition, the “ABL or ARG Inhibition %” value with ABL or ARG is “E (E is ≦35%)”. Also, the negative-log EC50 (pEC50) in the test on human PBMCs is 5.37.
Regarding `CCOc1cc(C(=O)N2CCN(C(C)=O)CC2)ccc1Nc1cc2c(cn1)N(C)C(=O)c1scnc1N2C` [Compound T73], on ERK5, the negative logarithm of the IC50 (pIC50) is less than 6.30. Moreover, the inhibition at 1 µM was 35 to 50% at ERK5; no more than 35% at AurA; no more than 35% on JAK1; no more than 35% at TAO2; no more than 35% at ACK. Moreover, the “AurB or AurC Inhibition %” value in the test with AurB or AurC is “E (E is ≦35%)”. Further, in the test on AMPKa1 or AMPKa2, the “AMPKa1 or AMPKa2 Inhibition %” value is recorded as “E (E is ≦35%)”. In addition, the “ABL or ARG Inhibition %” value with ABL or ARG is on record as “E (E is ≦35%)”. Besides, in the test on human PBMCs, the negative logarithm of the EC50 (pEC50) was less than 5.00.
For the compound `CCOc1cc(C(=O)N2CC[C@@H](N3CCN(C)CC3)C2)ccc1Nc1cc2c(cn1)N(C)C(=O)c1scnc1N2C` [Compound T74], the negative-log IC50 (pIC50) at ERK5 is less than 6.30. The inhibition at 1 µM is 50 to 75% on ERK5; no more than 35% on AurA; no more than 35% at JAK1; no more than 35% on TAO2; no more than 35% at ACK. Further, in the test with AurB or AurC, the “AurB or AurC Inhibition %” value is given as “E (E is ≦35%)”. Also, the “AMPKa1 or AMPKa2 Inhibition %” value in the test with AMPKa1 or AMPKa2 was “E (E is ≦35%)”. Also, in the test on ABL or ARG, the “ABL or ARG Inhibition %” value was “E (E is ≦35%)”. Moreover, the pEC50 with human PBMCs is 5.32.

The values are drawn from patent US20170008888A1 (KYORIN PHARMACEUTICAL CO., LTD., priority 2014, published 2017).
